The source of these data is patent US10071967B2, “N-cycloalkyl-N-{[2-(1-substitutedcycloalkyl)phenyl]methylene}-(thio)carboxamide derivatives” (BAYER CROPSCIENCE AKTIENGESELLSCHAFT, priority 2013, dated 2018).

One data set in a line: log P by HPLC on a reversed-phase column (C 18), EEC Directive 79/831 Annex V.A8. Particulars: HPLC reversed-phase C 18, 40° C., 0.1% aqueous formic acid and acetonitrile, gradient 10% to 90% acetonitrile. The class given is physicochemical. As for the experimental part:
In table 1, the log P values were determined in accordance with EEC Directive 79/831 Annex V.A8 by HPLC (High Performance Liquid Chromatography) on a reversed-phase column (C 18), using the method described below: Temperature: 40° C.; Mobile phases: 0.1% aqueous formic acid and acetonitrile; linear gradient from 10% acetonitrile to 90% acetonitrile. Calibration was carried out using unbranched alkan-2-ones (comprising 3 to 16 carbon atoms) with known log P values (determination of the log P values by the retention times using linear interpolation between two successive alkanones). lambda-max-values were determined using UV-spectra from 200 nm to 400 nm and the peak values of the chromatographic signals.
For the compound `COCC1(c2ccc(C)cc2CN(C(=O)c2c(C)nn(C)c2Cl)C2CC2)CC1` [Example 1.158], the logP worked out at 3.19. Still for that read-out and setting: to `Cc1cc(C(=O)N(Cc2cc(Cl)c(Cl)cc2C2(C)CC2)C2CC2)c(C)o1` [Example 1.159] belongs 5.43.

The data set is the same for the next values; noted with them: HPLC, reversed-phase column (C 18), 40° C.; 0.1% aqueous formic acid and acetonitrile, linear gradient 10% to 90% acetonitrile.
As to `CCC1(c2ccccc2CN(C(=O)c2cn(C)nc2C(F)F)C2CC2)CC1` [Example 1.067], the logP is 3.79. The same measure, in the same setting: with `Cc1cc(C(=O)N(Cc2ccc(Cl)cc2C2(C)CC2)C2CC2)c(C(F)F)o1` [Example 1.008] the figure was 4.98; with `C#CC1(c2ccc(C)cc2CN(C(=O)c2cn(C)nc2C(F)F)C2CC2)CC1` [Example 1.064], 3.31; with `CCC1(c2ccc(C(F)(F)F)cc2CN(C(=O)c2cn(C)nc2C(F)F)C2CC2)CC1` [Example 1.085], 4.27. For the compound `COc1cc(CN(C(=O)c2cn(C)nc2C(F)F)C2CC2)c(C2(C)CC2)cc1OC` [Example 1.020], the logP is listed as 2.98. On the same count and under the same terms, to `Cc1ccc(C2(C3CC3)CC2)c(CN(C(=O)c2c(C)nn(C)c2F)C2CC2)c1` [Example 1.108] belongs 4.11; to `Cc1cc(C(=O)N(Cc2cc(Cl)ccc2C2(C(F)(F)F)CC2)C2CC2)c(C)o1` [Example 1.148], 4.82; to `CCC1(c2cccc(F)c2CN(C(=O)c2cn(C)nc2C(F)F)C2CC2)CC1` [Example 1.102], 3.74.

Compound `Cc1nn(C)c(F)c1C(=O)N(Cc1ccc(Cl)cc1C1(CC(C)C)CC1)C1CC1` [Example 1.143] yielded a logP of 5.08. In the case of `Cc1ccc(C2(C(C)C)CC2)c(CN(C(=S)c2cn(C)nc2C(F)F)C2CC2)c1` [Example 1.125], the logP is listed as 4.98. `CCC1(c2cc(C)ccc2CN(C(=S)c2cn(C)nc2C(F)F)C2CC2)CC1` [Example 1.076] returned a logP of 4.67. The same measure, in the same setting: with `CCC1(c2ccc(Cl)cc2CN(C(=O)c2c(OC(F)F)nn(C)c2C(F)(F)F)C2CC2)CC1` [Example 1.091] the figure was 5.36; with `Cc1nn(C)c(Cl)c1C(=O)N(Cc1cc(Br)ccc1C1(C)CC1)C1CC1` [Example 1.023], 4.24; with `C#CC1(c2ccc(Cl)cc2CN(C(=O)c2cn(C)nc2C(F)F)C2CC2)CC1` [Example 1.063], 3.39.

For the compound `CCC1(c2cc(Cl)ccc2CN(C(=O)c2cn(C)nc2C(F)F)C2CC2)CC1` [Example 1.070], the logP is on record as 4.25. The same measure, in the same setting: with `C#CC1(c2ccc(C)cc2CN(C(=S)c2c(C)nn(C)c2F)C2CC2)CC1` [Example 1.066] the figure was 4.54. The compound `Cn1cc(C(F)F)c(C(=O)N(Cc2cc(Br)ccc2C2(C)CC2)C2CC2)n1` [Example 1.025] gave a logP of 4.39. For the compound `Cc1ccc(C2(C(C)C)CC2)c(CN(C(=O)c2c(C)nn(C)c2Cl)C2CC2)c1` [Example 1.119], the logP turned out to be 4.80. Still for that read-out and setting: with `Cc1c(C(=O)N(Cc2cc(Cl)ccc2C2(C)CC2)C2CC2)c(C(F)F)nn1C` [Example 1.030] the figure was 4.06; with `Cc1ccc(C2(C)CC2)c(CN(C(=O)c2cc(C3CC3)oc2C)C2CC2)c1` [Example 1.045], 5.22. For `Cn1cc(C(=O)N(Cc2cc(Cl)ccc2C2(C)CC2)C2CC2)c(C(F)F)n1` [Example 1.029], the logP is 3.83. Still for that read-out and setting: with `Cc1ccc(C2(C)CC2)c(CN(C(=O)c2cc(C)oc2C(F)F)C2CC2)c1` [Example 1.042] the figure was 4.62.

Compound `Cc1nn(C)c(F)c1C(=O)N(Cc1cc(Br)ccc1C1(C)CC1)C1CC1` [Example 1.027] gave a logP of 3.99. `Cn1cc(C(=O)N(Cc2ccc(F)cc2C2(C(F)F)CC2)C2CC2)c(C(F)F)n1` [Example 1.133]: the logP is 3.09. Consider `Cc1ccc(C2(C)CC2)c(CN(C(=O)c2c(C(F)F)nn(C)c2C(F)F)C2CC2)c1` [Example 1.035], for which the logP is on record as 4.36.

As to `Cc1ccc(C2(C(F)F)CC2)c(CN(C(=S)c2cn(C)nc2C(F)F)C2CC2)c1` [Example 1.140], the logP came out at 3.76. As for `CCCC1(c2ccc(C)cc2CN(C(=O)c2cn(C)nc2C(F)F)C2CC2)CC1` [Example 1.114], the log partition coefficient (logP) stood at 4.59. On the same count and under the same terms, to `Cc1ccc(C2(C)CC2)c(CN(C(=O)c2nc(C)oc2C(F)F)C2CC2)c1` [Example 1.044] belongs 4.56. With `CCC1(c2ccc(C)cc2CN(C(=O)c2c(OC(F)F)nn(C)c2F)C2CC2)CC1` [Example 1.098], the logP is reported as 4.72. The logP values of the last two compounds are within 0.2 log units of each other.

With `COc1ccc(CN(C(=O)c2c(C)nn(C)c2F)C2CC2)c(C2(C)CC2)c1` [Example 1.018], the log partition coefficient (logP) was 3.23.

On to `Cc1ccc(C2(C)CC2)c(CN(C(=O)c2c(C)nn(C)c2F)C2CC2)c1` [Example 1.040], for which the logP worked out at 3.73. With `Cc1ccc(C2(C3CC3)CC2)c(CN(C(=O)c2cn(C)nc2C(F)F)C2CC2)c1` [Example 1.107], the logP is 4.11. As for `CCC1(c2cc(C(F)(F)F)ccc2CN(C(=O)c2cn(C)nc2C(F)F)C2CC2)CC1` [Example 1.077], the logP was 4.36. The same measure, in the same setting: with `Cn1cc(C(=O)N(Cc2ccccc2C2(C(F)(F)F)CC2)C2CC2)c(C(F)F)n1` [Example 1.145] the figure was 3.41; with `Cc1nn(C)cc1C(=O)N(Cc1cccc(F)c1C1(C)CC1)C1CC1` [Example 1.004], 2.98; with `Cc1ccc(C2(C)CC2)c(CN(C(=S)c2cn(C)nc2C(F)F)C2CC2)c1` [Example 1.052], 4.39. Compound `CCC1(c2ccc(C)cc2CN(C(=O)c2c(OC(F)F)nn(C)c2Cl)C2CC2)CC1` [Example 1.101] registered a logP of 2.84. Same read-out and setting: to `CCC1(c2ccc(Cl)cc2CN(C(=O)c2c(OC(F)F)nn(C)c2F)C2CC2)CC1` [Example 1.089] belongs 4.78; to `C=Cc1cc(C(=O)N(Cc2cc(C)ccc2C2(C)CC2)C2CC2)c(C)o1` [Example 1.049], 5.00. With `Cc1ccc(C2(C)CC2)c(CN(C(=O)c2ccoc2C(F)F)C2CC2)c1` [Example 1.043], the logP is on record as 4.35.

In turn, `Cn1cc(C(=O)N(Cc2cc(Cl)ccc2C2(C(F)(F)F)CC2)C2CC2)c(C(F)F)n1` [Example 1.147] had a logP of 3.78. For `Cc1ccc(C2(C(C)C)CC2)c(CN(C(=O)c2cn(C)nc2C(F)F)C2CC2)c1` [Example 1.123], the logP was found to be 4.49.

`CCCC1(c2ccc(C)cc2CN(C(=O)c2cc(C)oc2C)C2CC2)CC1` [Example 1.115] yielded a logP of 5.62. The compound `CCC1(c2ccc(C)cc2CN(C(=O)c2c(C)nn(C)c2F)C2CC2)CC1` [Example 1.093] returned a logP of 4.14.

The compound `CCOC1(c2ccc(C)cc2CN(C(=O)c2nn(C)nc2C(F)F)C2CC2)CC1` [Example 1.126] displayed a logP of 4.21. With `Cc1nn(C)c(F)c1C(=O)N(Cc1ccc(F)cc1C1(C)CC1)C1CC1` [Example 1.014], the logP is reported as 3.46. Take `Cc1ccc(C2(C)CC2)c(CN(C(=O)c2c(C(F)F)nn(C)c2C)C2CC2)c1` [Example 1.036]: the logP is on record as 3.99. Same read-out and setting: with `Cn1nc(C(=S)N(Cc2ccc(Cl)cc2C2(C)CC2)C2CC2)c(C(F)F)n1` [Example 1.011] the figure was 5.11; with `Cc1ccc(C2(C)CC2)c(CN(C(=S)c2oc(C)nc2C(F)F)C2CC2)c1` [Example 1.053], 4.92; with `Cn1cc(C(=O)N(Cc2ccc(Cl)cc2C2(C)CC2)C2CC2)c(C(F)F)n1` [Example 1.010], 3.96.

In turn, `CCC1(c2cc(C)c(F)cc2CN(C(=O)c2nn(C)nc2C(F)F)C2CC2)CC1` [Example 1.079] returned a lipophilicity (logP) of 4.85. The compound `Cc1ccc(C2(CC(C)C)CC2)c(CN(C(=O)c2c(C)nn(C)c2F)C2CC2)c1` [Example 1.144] had a logP of 4.97. On to `Cc1ccc(C2(C(C)C)CC2)c(CN(C(=O)c2cc(C)oc2C)C2CC2)c1` [Example 1.118], for which the logP turned out to be 5.65. Compound `CCOC1(c2ccc(C)cc2CN(C(=O)c2cn(C)nc2C(F)F)C2CC2)CC1` [Example 1.128] yielded a logP of 3.60.

For `CCOC1(c2ccc(C)cc2CN(C(=O)c2c(C)nn(C)c2Cl)C2CC2)CC1` [Example 1.131], the logP worked out at 3.71. This logP and that of the compound before are within 0.2 log units of each other.

In turn, `Cn1cc(C(=O)N(Cc2cc(Br)ccc2C2(C)CC2)C2CC2)c(C(F)F)n1` [Example 1.024] showed a logP of 3.94.

The compound `Cc1ccc(C2(C)CC2)c(CN(C(=O)c2c(C)nn(C)c2Cl)C2CC2)c1` [Example 1.048] had a logP of 3.96. In the case of `CCC1(c2ccc(C)cc2CN(C(=O)c2c(OC(F)F)nn(C)c2C(F)(F)F)C2CC2)CC1` [Example 1.100], the logP is listed as 5.35. On to `Cc1ccc(C2(C(C)C)CC2)c(CN(C(=O)c2c(C)nn(C)c2F)C2CC2)c1` [Example 1.122], for which the logP was 4.54. `CCC1(c2ccc(Cl)cc2CN(C(=O)c2cn(C)nc2C(F)F)C2CC2)CC1` [Example 1.086] gave a logP of 4.18. With `Cc1ccc(C2(C)CC2)c(CN(C(=O)c2cc(C)oc2C)C2CC2)c1` [Example 1.047], the logP was 4.85.

Staying with this data set, now noted: Table 2, compounds of formula (I); HPLC C 18, 40° C., 0.1% aqueous formic acid and acetonitrile.
`Cn1cc(C(=S)N(Cc2cccc3c2C2(CCC3)CC2)C2CC2)c(C(F)F)n1` [Ia.03] displayed a logP of 4.37. As to `Cn1cc(C(=O)N(Cc2cccc3c2C2(CCC3)CC2)C2CC2)c(C(F)F)n1` [Ia.02], the logP was determined as 3.73. Regarding `Cn1cc(C(=O)N(Cc2cccc3c2C2(CC3)CC2)C2CC2)c(C(F)F)n1` [Ia.01], the logP was 3.51.

Still in this data set, the particulars now being: Table 4, compounds of formula (IV); HPLC C 18, 40° C., 0.1% aqueous formic acid and acetonitrile.
With “3-fluoro-2-(1-methylcyclopropyl)benzaldehyde [IV.14]”, the log partition coefficient (logP) is on record as 3.13.

A word on the logP: it is a log measure of how a compound divides between an organic and an aqueous phase. A higher logP goes with higher lipophilicity.
